Assay results taken from patent publication US9555038B2, “Heterocycle-substituted tetracyclic compounds and methods of use thereof for the treatment of viral diseases” (Merck Sharp & Dohme Corp., priority 2013, dated 2017).
Read-outs that look alike come from different tables or passages of the source.

What was measured:
HCV replicon 1AQ30D = assay: Cell-based HCV Replicon Assay B, replicon 1AQ30D
In short: (§1)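 Replicon cells seeded in 5% FBS; compounds added 24 h later, then 3 days' incubation. Replicon RNA quantified by real-time RT-PCR with genotype-specific primers/probes (NS5B amplicon for 1b). EC50 = concentration raising CT by 1 over projected baseline.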

HCV replicon 1AY93H = assay: Cell-based HCV Replicon Assay A, replicon 1AY93H; conditions: read-out: 1A Y93H IC50, replicon 1AY93H
In short: (§2)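 Replicon cells seeded at 2000 cells/well with compound, 10 serial dilutions starting at 333.3 nM to 1.667 nM, 0.5% DMSO, 5% FBS, harvested on day 3. Replicon RNA measured by multiplex TaqMan RT-PCR with cyclophilin as endogenous control, quantified from standard curves of Ct vs log ng RNA.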

HCV replicon 1A = assay: Cell-based HCV Replicon Assay A, replicon 1A
In short: as §2

HCV replicon 2B = assay: Cell-based HCV Replicon Assay A, replicon 2B
In short: as §2

HCV replicon 1B = assay: Cell-based HCV Replicon Assay B, replicon 1B
In short: as §1

[1] = read-out: 1A Q30D IC50, replicon 1AQ30D
[2] = Hepatitis C virus, read-out: 1A Q30D IC50 (nM), replicon 1AQ30D

| Compound | IC50 (HCV replicon 1AQ30D; [1]) [nM] | IC50 (HCV replicon 1AY93H) [pM] | IC50 (HCV replicon 1A; Hepatitis C virus) [pM] | IC50 (HCV replicon 2B; read-out: 2B IC50, replicon 2B) [nM] | IC50 (HCV replicon 1B; Hepatitis C virus) [pM] | IC50 (HCV replicon 1A) [pM] | IC50 (HCV replicon 1B) [pM] | IC50 (HCV replicon 1AQ30D; [2]) [nM] | IC50 (HCV replicon 2B; Hepatitis C virus, read-out: 2B IC50 (nM), replicon 2B) [nM] |
| --- | --- | --- | --- | --- | --- | --- | --- | --- | --- |
| CCC(CC)c1ncc(C2Oc3cc(-c4cnc([C@@H]5CCCN5C(=O)[C@@H](NC(=O)OC)C(C)C)[nH]4)cc(F)c3-c3cc4cc(-c5cnc([C@@H]6CCCN6C(=O)C(NC(=O)OC)C6CCOC(C)(C)C6)[nH]5)ccc4n32)s1 (single isomer, unassigned) [Compound 444] | 0.038 | 5 | 2.2 | 0.007 | 3.8 | – | – | – | – |
| CCC(CC)c1ncc(C2Oc3cc(-c4cnc([C@@H]5CCCN5C(=O)[C@@H](NC(=O)OC)C(C)C)[nH]4)cc(F)c3-c3cc4cc(-c5cnc([C@@H]6CCCN6C(=O)C(NC(=O)OC)C6CCOC(C)(C)C6)[nH]5)ccc4n32)s1 (single isomer, unassigned) [Compound 445] | 0.949 | 107 | – | 0.096 | – | 2.8 | 4.6 | – | – |
| COC(=O)NC(C(=O)N1CCC[C@H]1c1ncc(-c2ccc3c(c2)cc2n3C(c3cnc(C4(C)CCCC4)s3)Oc3cc(-c4cnc([C@@H]5CCCN5C(=O)[C@@H](NC(=O)OC)C(C)C)[nH]4)cc(F)c3-2)[nH]1)C1CCOC(C)(C)C1 (single isomer, unassigned) [Compound 446] | 0.034 | 4 | 1.8 | 0.005 | 3.4 | – | – | – | – |
| COC(=O)NC(C(=O)N1CCC[C@H]1c1ncc(-c2ccc3c(c2)cc2n3C(c3cnc(C4(C)CCCC4)s3)Oc3cc(-c4cnc([C@@H]5CCCN5C(=O)[C@@H](NC(=O)OC)C(C)C)[nH]4)cc(F)c3-2)[nH]1)C1CCOC(C)(C)C1 (single isomer, unassigned) [Compound 447] | 0.607 | 259 | – | 0.059 | – | 2.8 | 3.3 | – | – |
| COC(=O)NC(C(=O)N1CCC[C@H]1c1ncc(-c2ccc3c(c2)cc2n3C(c3cnc(C4CCOCC4)s3)Oc3cc(-c4cnc([C@@H]5CCCN5C(=O)[C@@H](NC(=O)OC)C(C)C)[nH]4)cc(F)c3-2)[nH]1)C1CCOC(C)(C)C1 (single isomer, unassigned) [Compound 448] | 0.113 | 13 | 4.7 | 0.011 | 6 | – | – | – | – |
| COC(=O)NC(C(=O)N1CCC[C@H]1c1ncc(-c2ccc3c(c2)cc2n3C(c3cnc(C4CCOCC4)s3)Oc3cc(-c4cnc([C@@H]5CCCN5C(=O)[C@@H](NC(=O)OC)C(C)C)[nH]4)cc(F)c3-2)[nH]1)C1CCOC(C)(C)C1 (single isomer, unassigned) [Compound 449] | 0.737 | 64 | – | 0.044 | – | 4.3 | 3.4 | – | – |
| COC(=O)N[C@H](C(=O)N1CCC[C@H]1c1ncc(-c2cc(F)c3c(c2)OC(c2cnc(C4(C)CC4)s2)n2c-3cc3cc(-c4cnc([C@@H]5C[C@H]6C[C@H]6N5C(=O)[C@@H](NC(=O)OC)C(C)C)[nH]4)ccc32)[nH]1)C(C)C (single isomer, unassigned) [Compound 452] | 0.093 | 4 | 2.7 | 0.04 | 2.5 | – | – | – | – |
| COC(=O)N[C@H](C(=O)N1CCC[C@H]1c1ncc(-c2cc(F)c3c(c2)OC(c2cnc(C4(C)CC4)s2)n2c-3cc3cc(-c4cnc([C@@H]5C[C@H]6C[C@H]6N5C(=O)[C@@H](NC(=O)OC)C(C)C)[nH]4)ccc32)[nH]1)C(C)C (single isomer, unassigned) [Compound 453] | 2.14 | 210 | – | 0.65 | – | 2.3 | 2 | – | – |
| COC(=O)N[C@H](C(=O)N1CCC[C@H]1c1ncc(-c2cc(F)c3c(c2)OC(c2cnc(C4(C)CCCC4)s2)n2c-3cc3cc(-c4cnc([C@@H]5C[C@H]6C[C@H]6N5C(=O)[C@@H](NC(=O)OC)C(C)C)[nH]4)ccc32)[nH]1)C(C)C (single isomer, unassigned) [Compound 454] | – | 2 | 2.3 | – | 3.1 | – | – | 0.047 | 0.052 |
| COC(=O)NC(C(=O)N1CCC[C@H]1c1ncc(-c2ccc3c(c2)cc2n3C(c3cnc(C4(C)CC4)s3)Oc3cc(-c4cnc([C@@H]5CCCN5C(=O)[C@@H](NC(=O)OC)C(C)C)[nH]4)cc(F)c3-2)[nH]1)C1CCOC(C)(C)C1 (single isomer, unassigned) [Compound 457] | 0.07 | 7 | 3.3 | 0.005 | 3.6 | – | – | – | – |
| COC(=O)NC(C(=O)N1CCC[C@H]1c1ncc(-c2ccc3c(c2)cc2n3C(c3cnc(C4(C)CC4)s3)Oc3cc(-c4cnc([C@@H]5CCCN5C(=O)[C@@H](NC(=O)OC)C(C)C)[nH]4)cc(F)c3-2)[nH]1)C1CCOC(C)(C)C1 (single isomer, unassigned) [Compound 458] | 0.024 | 7 | – | 0.007 | – | 3 | 3.5 | – | – |
| COC(=O)NC(C(=O)N1CCC[C@H]1c1ncc(-c2ccc3c(c2)cc2n3C(c3cnc(C4(C)CC4)s3)Oc3cc(-c4cnc([C@@H]5CCCN5C(=O)[C@@H](NC(=O)OC)C(C)C)[nH]4)cc(F)c3-2)[nH]1)C1C[C@@H](C)O[C@@H](C)C1 (single isomer, unassigned) [Compound 462] | – | 7 | – | 0.007 | – | 3.5 | 3.1 | 0.038 | – |
| COC(=O)NC(C(=O)N1[C@@H]2C[C@@H]2C[C@H]1c1ncc(-c2ccc3c(c2)cc2n3C(c3cnc(C4(C)CC4)s3)Oc3cc(-c4cnc([C@@H]5CCCN5C(=O)[C@@H](NC(=O)OC)C(C)C)[nH]4)cc(F)c3-2)[nH]1)C1C[C@@H](C)O[C@@H](C)C1 (single isomer, unassigned) [Compound 463] | 0.012 | 2 | 2.6 | 0.007 | 2.8 | – | – | – | – |
| COC(=O)NC(C(=O)N1[C@@H]2C[C@@H]2C[C@H]1c1ncc(-c2ccc3c(c2)cc2n3C(c3cnc(C4(C)CC4)s3)Oc3cc(-c4cnc([C@@H]5CCCN5C(=O)[C@@H](NC(=O)OC)C(C)C)[nH]4)cc(F)c3-2)[nH]1)C1C[C@@H](C)O[C@@H](C)C1 (single isomer, unassigned) [Compound 464] | 1.23 | 197 | – | 0.282 | – | 2.8 | 3.4 | – | – |
| COC(=O)NC(C(=O)N1[C@@H]2C[C@@H]2C[C@H]1c1ncc(-c2ccc3c(c2)cc2n3C(c3cnc(C4(C)CC4)s3)Oc3cc(-c4cnc([C@@H]5CCCN5C(=O)[C@@H](NC(=O)OC)C(C)C)[nH]4)cc(F)c3-2)[nH]1)C1CCOC(C)(C)C1 (single isomer, unassigned) [Compound 465] | 0.022 | 2 | 2.7 | 0.005 | 3.9 | – | – | – | – |
| COC(=O)NC(C(=O)N1[C@@H]2C[C@@H]2C[C@H]1c1ncc(-c2ccc3c(c2)cc2n3C(c3cnc(C4(C)CC4)s3)Oc3cc(-c4cnc([C@@H]5CCCN5C(=O)[C@@H](NC(=O)OC)C(C)C)[nH]4)cc(F)c3-2)[nH]1)C1CCOC(C)(C)C1 (single isomer, unassigned) [Compound 466] | 0.015 | 2 | – | 0.005 | – | 2.7 | 3 | – | – |
| COC(=O)NC(C(=O)N1[C@@H]2C[C@@H]2C[C@H]1c1ncc(-c2ccc3c(c2)cc2n3C(c3cnc(C4(C)CC4)s3)Oc3cc(-c4cnc([C@@H]5CCCN5C(=O)[C@@H](NC(=O)OC)C(C)C)[nH]4)cc(F)c3-2)[nH]1)C1CCOC(C)(C)C1 (single isomer, unassigned) [Compound 467] | 1.4 | 209 | – | 0.158 | – | 3 | 3.4 | – | – |
| COC(=O)NC(C(=O)N1[C@@H]2C[C@@H]2C[C@H]1c1ncc(-c2ccc3c(c2)cc2n3C(c3cnc(C4(C)CC4)s3)Oc3cc(-c4cnc([C@@H]5CCCN5C(=O)[C@@H](NC(=O)OC)C(C)C)[nH]4)cc(F)c3-2)[nH]1)C1CCOC(C)(C)C1 (single isomer, unassigned) [Compound 468] | 1.23 | 155 | – | 0.234 | – | 3.3 | 2.9 | – | – |
| COC(=O)NC(C(=O)N1CCC[C@H]1c1ncc(-c2ccc3c(c2)cc2n3C(c3cnc(C4(C)CCCC4)s3)Oc3cc(-c4cnc([C@@H]5CCCN5C(=O)[C@@H](NC(=O)OC)C(C)C)[nH]4)cc(F)c3-2)[nH]1)C1C[C@@H](C)O[C@@H](C)C1 (single isomer, unassigned) [Compound 469] | – | 2 | 3 | 0.005 | 3.4 | – | – | 0.019 | – |
| COC(=O)NC(C(=O)N1CCC[C@H]1c1ncc(-c2ccc3c(c2)cc2n3C(c3cnc(C4(C)CCCC4)s3)Oc3cc(-c4cnc([C@@H]5CCCN5C(=O)[C@@H](NC(=O)OC)C(C)C)[nH]4)cc(F)c3-2)[nH]1)C1CCOC(C)(C)C1 (single isomer, unassigned) [Compound 471] | 0.013 | 3 | – | 0.004 | – | 2.8 | 3.5 | – | – |
| COC(=O)NC(C(=O)N1CCC[C@H]1c1ncc(-c2ccc3c(c2)cc2n3C(c3cnc(C4(C)CCCC4)s3)Oc3cc(-c4cnc([C@@H]5CCCN5C(=O)[C@@H](NC(=O)OC)C(C)C)[nH]4)cc(F)c3-2)[nH]1)C1CCOC(C)(C)C1 (single isomer, unassigned) [Compound 472] | 2.7 | 555 | – | 0.15 | – | 2.1 | 3.6 | – | – |
